Melting point data for 89 compounds are collected here from a melting point compilation (Tetko et al.; mined from patent text by program, amines drawn as free bases though some values may be those of a salt).

As to `CN(Cc1ccccc1)Cc1c(-c2ccc(N)cc2)sc2c1c(=O)c(C(=O)c1ccccc1)cn2Cc1c(F)cccc1F`, the melting point (usually the temperature of the solid-liquid transition) lay in the range of 126 to 128 °C.
`Cc1cc2c(cc1Cl)C=C(C(=O)O)C(C(F)(F)F)O2` (centres undefined) registered a melting point of 208 to 209 °C.
Take `COc1ccc(C2=NN(C3CCN(Cc4ccncc4)CC3)C(=O)[C@@H]3CC=CC[C@H]23)cc1OC`: the melting point was 196 to 197 °C.
Compound `CCCC(=O)OC1c2ccccc2C(=O)N1c1ccc2ccc(Cl)nc2n1` (centres undefined) had a melting point of 140 °C.
For `C=CCNC(=O)Oc1cc(-n2c(=O)cc(C(F)(F)F)n(C)c2=O)c(F)cc1Cl`, the melting point is 98 to 100 °C.
Next, `O=P(O)(O)C1(P(=O)(O)O)CCCCN1`: 70 °C; `CN(C)CCNC(=O)c1ccc(-c2ccc3nnn(Cc4ccc5ncccc5c4)c3n2)cc1`: 122 to 125 °C; `CCOC(=O)C1=CCCCC1S(=O)(=O)Nn1cccc1C1CC1` (centres undefined): 95 to 96 °C.
In the case of `O=C(CC(c1cc(F)ccc1F)S(=O)(=O)c1ccc(Cl)cc1)N1CCCC1` (centres undefined), the melting point fell in the range of 122 to 125 °C.
To `CCOc1cnc(-c2ccc(O)cc2)nc1` belongs 202 °C; to `N#CC1=C(c2cc3ccccc3s2)Nc2n[nH]cc2C1c1cccc2nonc12` (centres undefined), 220 °C.
To `O=c1[nH]c(=O)n(C2CC(O)C(CO)O2)cc1-c1ccccn1` (centres undefined) belongs 201 to 203 °C.
Next, `Cc1ccc(-c2cc(CO)nn2-c2ccc(S(N)(=O)=O)cc2)cc1`: 166 to 169 °C.
Turning to `COc1ccc2cc(C(=O)CCCCCCC(=O)O)ccc2c1`, the melting point was 148 to 149 °C.
Next, `O=[N+]([O-])c1ccc(CP2(=O)OCCO2)cc1`: 144 to 145 °C.
With `O=C(c1ccc2nc(C3CC3)n(Cc3ccccc3Cl)c2c1)C1CNCCO1` (centres undefined), the melting point lay within 193 to 195 °C.
To `CCOC(=O)C1=C(C)NC(=NC#N)N(C(=O)OCC)C1c1cccc([N+](=O)[O-])c1` (centres undefined) belongs 174 to 175 °C.
For the compound `COc1cccc(-c2n[nH]c(-c3ccccc3COC(C)=O)n2)c1`, the melting point lay within 83 to 87 °C.
Consider `CC(=O)NC[C@H]1CN(c2cc(F)c(N3CCN(CCO)CC3)c(F)c2)C(=O)O1`, for which the melting point was in the range of 172 to 174 °C.
Next, `Oc1ccc2c(c1)COc1c-2cc2ccc(O)cc2c1-c1ccsc1`: 159 to 161 °C.
To `Nc1nc2c(c(Nc3cccc(Cl)c3)n1)-c1ccccc1C2` belongs 224 to 225 °C.
Next, `CS(=O)(=O)NCc1ccc2[nH]cc(C(=O)C(=O)N3CCCC3)c2c1`: 235 to 236 °C.
As to `CCOC(=O)C1=C(COCCN)NC=C(C(=O)OC)C1c1cccc(C(F)(F)F)c1Cl` (centres undefined), the melting point was 122 °C.
Next, `Cc1ccc(C=CC(=O)N(C)O)cc1`: 142 to 144 °C.
To `CC1Oc2ccc(OCCCC(C)(C)C(=O)O)cc2C=C1c1nccn1C` (centres undefined) belongs 145 to 146 °C; to `O=C(O)c1ccc2ccccc2c1OCC(F)(F)F`, 172 °C; to `c1csc(-c2ccc(-c3cccs3)nc2)c1`, 150 °C.
The compound `COC(=O)N1C2=C(C(=O)CC(C)(C)C2)C(c2ccc([N+](=O)[O-])cc2)C2=C1CC(C)(C)CC2=O` displayed a melting point of 189 to 190 °C.
Next, `O=C(CN1CCN(c2cnccn2)CC1)N1CCC(CO)(c2cccc(C(F)(F)F)c2)CC1`: 223 °C; `CC[C@H](C)C(=O)O[C@H]1C[C@@H](C)C=C2C=C[C@H](C)[C@H](CCC(=O)C[C@@H](O)CC(=O)O)[C@H]21`: 102 to 103 °C.
`CCCN(CCC)c1nc2c(N3CCCCCC3)nc(N3CCCCCC3)cc2c(=O)[nH]1` displayed a melting point of 220 °C.
The compound `CC(=O)OCCNC(=O)NCc1ccc(-c2csc(N=C(N)N)n2)o1` came in with a melting point of 200 to 202 °C.
Next, `Cc1c(-c2ccncc2)[nH]c(-c2ccncc2)c1C(=O)CC(C)C`: 199 to 201 °C.
Next, `COc1ccccc1SCCCCCCCCCC(=O)O`: 65 to 66 °C; `NS(=O)(=O)c1ccc(NC(=O)C(=O)N2CCC(Cc3ccc(F)cc3)CC2)cc1`: 201 to 203 °C; `CNC(=O)C(S(=O)(=O)CCCl)S(=O)(=O)CCCl`: 173 to 175 °C.
`COc1cc(C=C2N=C(C)OC2=O)ccc1OC(C)=O` came in with a melting point of 205 to 206 °C.
Next, `Cc1cc(-c2ncn3c(C(F)(F)F)cc(-c4ccc(C(F)(F)F)c(OCC(F)(F)F)c4)nc23)ccn1`: 189 °C; `O=[N+]([O-])c1ccc(F)c(-c2ccc3ncccc3c2)c1F`: 152 to 153 °C.
The compound `Cc1cc2nc(C(=O)NC(Cc3ccc(OCc4ccccc4)cc3)C(=O)O)cn2cc1-c1ccc(Cl)cc1` (centres undefined) displayed a melting point of 248 to 249 °C.
To `COc1ccc(C(O)C(C)=CC(=O)O)c(C(C)C)c1OC` (centres undefined) belongs 154 to 155 °C; to `O=c1nc(-c2ccnc(Cl)c2)sc2ccccc12`, 178 °C; to `CC(C)c1cc(O)cc2nc(-c3ccc(O)cc3)oc12`, 200 °C.
Consider `Cc1cc(N(C)N)nnc1-c1ccc(C#N)cc1`, for which the melting point is 149 to 152 °C.
Next, `Cc1cc(C#N)sc1-c1ccc2c(c1)C(C)(C)OC(C)N2` (centres undefined): 145 to 146 °C; `COC(=O)C(=CC(c1ccccc1)c1ccccc1)C(=O)OC`: 120 to 122 °C; `N=C(c1ccccc1)C1CCN1C(c1ccccc1)c1ccccc1` (centres undefined): 124 to 126 °C.
Next, `C=CCC(Oc1cccc(C)c1C)C1=NCCN1` (centres undefined): 72 to 74 °C; `Cc1csc2ncc(C(O)CCc3ccc(Br)cc3)n12` (centres undefined): 175 to 178 °C; `C=C1C(=C)C2OC1c1cc3cccc(OC)c3cc12` (centres undefined): 154 to 155 °C.
Compound `O=C(CCl)c1scc(Br)c1Br` registered a melting point of 86 to 88 °C.
Regarding `COCc1cc(C(O)CNCCCCCOCCc2ccc(F)cc2)ccc1O` (centres undefined), the melting point fell in the range of 86 to 87 °C.
On to `Cc1c(C)c2c(c(C)c1N)CC(C)(CN1CCC(c3ccccc3)CC1)O2` (centres undefined), for which the melting point was 112 to 113 °C.
Next, `CCOC(=O)C(=O)C1COc2ccccc2C1=O` (centres undefined): 73 to 75 °C; `CCCCc1nc2ncncc2n1Cc1ccc2oc(-c3ccccc3-c3nnn[nH]3)c(Br)c2c1`: 211 to 213 °C.
To `COC(=O)Cc1c(C)nc(SC)nc1O` belongs 200 °C; to `O=C1NCCc2c[nH]c3cccc1c23`, 234 °C; to `CC(=O)Oc1cc(O)c(C=O)c(OC(C)=O)c1`, 103 to 105 °C.
To `Nc1cccc2c1C1CCCCN1C2=O` (centres undefined) belongs 183 °C; to `CC1(C)Oc2ccc(S(=O)(=O)c3ccccc3)cc2C(N)C1O` (centres undefined), 160 to 163 °C; to `O=C(O)CCCCc1cc(O)c(O)c(Cl)c1`, 99 to 101 °C.
Take `O=C(OCC1OC(c2ccc(Cl)c(Cc3cc4ccccc4s3)c2)C(OC(=O)c2ccccc2)C(OC(=O)c2ccccc2)C1O)c1ccccc1` (centres undefined): the melting point fell in the range of 215 to 217 °C.
`CCCc1c(OCCCS(=O)(=O)c2ccc(CC(=O)OC)cn2)ccc(C(C)=O)c1O` returned a melting point of 124 to 126 °C.
To `Oc1cccc(/C=C/c2nc(-c3ccccc3)cs2)c1` belongs 150 to 151 °C.
`Cc1cccc2c3c([nH]c12)CCCC3=O` showed a melting point greater than 247 °C.
Next, `c1ccc(Oc2ccc(Nc3ncnc4cnc(N5CCCCC5)nc34)cc2)cc1`: 175 °C; `CC(C)(C)OC(=O)N1CCC(c2nc(-c3ccc(-c4ccccc4)cc3)c[nH]2)CC1`: 120 to 122 °C; `CCOCCc1ccc(OCCN(C(=O)n2cncn2)c2ncnc3sc(CC)cc23)c(C)c1`: 129 to 131 °C.
To `O=c1c2cc(O)ccc2nc(CSc2ncnc3[nH]cnc23)n1-c1ccccc1Cl` belongs 186 to 214 °C.
In turn, `COc1cc(C(F)(F)F)nn1-c1ccc(NC(=O)c2ccncc2F)cc1` came in with a melting point of 160 to 161 °C.
For `O=c1ccc2cc(OCc3cn(-c4ccccc4Cl)nn3)ccc2o1`, the melting point is 164 to 166 °C.
Next, `N#Cc1cccc(-n2c(=O)c(CCCc3ccncc3)cc3cccnc32)c1`: 202 to 204 °C.
Next, `COC(=O)c1ccc(-c2nc3[nH]c4ccccc4c3c(=O)[nH]2)cc1`: greater than 250 °C; `CC(C)(C)c1nnc2ccc(Cl)nn12`: 150 to 152 °C.
In turn, `CC(C)(C)OC(=O)c1ncn2c1[C@@H]1CCCN1C(=O)c1c-2ccc(Cl)c1Cl` gave a melting point of 213 to 214 °C.
Next, `Cc1c(F)c(F)c(O)c2c(=O)c(C(=O)O)cn(-c3cc(N)c(F)cc3F)c12`: greater than 280 °C.
In turn, `COC(=O)C1=C(C)NC(C)=C(C(=O)OCOC(=O)C(C)(C)C)C1c1cccc(Cl)c1Cl` (single isomer, unassigned; (+)) registered a melting point of 154 to 155 °C.
Next, `CNC(=O)[C@@H]1CCCC[C@@H]1Nc1nc(Cl)ncc1Cl` (relative stereo): 108 °C.
Compound `FC(F)(F)c1ccc2nc(N3CCN(c4ncncc4Cl)CC3)[nH]c2c1` registered a melting point of 66.6 to 66.7 °C.
Next, `O=c1c2cc(O)ccc2oc2c([N+](=O)[O-])ccc(Cl)c12`: 290 to 292 °C; `OCCCc1cnoc1-c1ccc(Cl)c(F)c1`: 51 to 52 °C; `Cc1ccc2c(S(C)(=O)=O)cn(CC3=NCCN3)c2c1`: greater than 300 °C.
Consider `O=C(OCC1=CCN(Cc2c[nH]c3cccnc23)CC1)c1ccccc1`, for which the melting point was 126 °C.
To `O=[N+]([O-])c1ccccc1NCC12CC3CC(CC(C3)C1)C2` belongs 106 to 109 °C.
Turning to `CC(C)CCCC(C)C1CCC2C3=C(CCC21C)C1(C)CCC(O)CC1CC3=O` (centres undefined), the melting point fell in the range of 115 to 117 °C.
In the case of `COc1cc(C=O)nnc1OC`, the melting point is 179 to 181 °C.
For the compound `CN(C)C1=C(Cl)C(=O)NC1=Nc1ccccc1`, the melting point was in the range of 135 to 138 °C.
For the compound `CC(C(=O)O)c1cc(Cl)c([N+](=O)[O-])cc1Cl` (centres undefined), the melting point stood at 143 °C.
Next, `CN1CCN(c2ccc(S(=O)(=O)c3cccc(F)c3)c(N)c2)CC1`: 89 to 92 °C.
